The values that follow come from patent US5811428A, “Pyrimidine carboxamides and related compounds and methods for treating inflammatory conditions” (Signal Pharmaceuticals, Inc., priority 1995, dated 1998).

pIC50: −log10 of the molar value. Like-named read-outs stand apart in the source and are kept apart here.

The subject of one data set is NFκB / AP-1. In words: Inhibition of the activation of NFκB and AP-1 (luciferase reporter Jurkat T-cells, PMA/PHA stimulated). Type of data set: cell-based, human. To be noted: stable Jurkat T-cells, read-out: NFκ/AP-1 IC50. On the procedure: Stable human Jurkat T-cells containing an NFκB binding site (from the MHC promoter) fused to a minimal SV-40 promoter driving luciferase expression were used in this experiment. Cells were split to 3×10^5 cells/mL every 2-3 days (cell concentration should not exceed 1×10^6 cells/mL to keep the cells proliferating in log phase). These cells were counted, resuspended in fresh medium containing 10% Serum-Plus at a density of 1×10^6 cells/mL and plated in 96 well round bottom plates (200 μL per well) 18 hours prior to starting the experiment.
Compounds of this invention, dissolved in dimethyl sulfoxide (3.3, 0.33 and 0.03 μg/mL), were then added to the 96 well plates containing the cells and the plates are incubated for 0.5 h at 37° C. Then 50 ng/mL of phorbol 12-myristate-13-acetate (PMA) and 1 μg/mL of phytohemagglutinin (PHA) was added to each well and the cells were incubated for an additional 5 h at 37° C. The plates were centrifuged at 2200 RPM for 3 minutes at room temperature and then the medium was removed. To each well was added 60 μL of cell lysis buffer and the plates were left at room temperature for 0.25 h. Then 40 μL of each cell extract was transferred to a black 96 well plate and 50 μL of luciferase substrate buffer was added. Luminescence was immediately measured using a Packard TopCount.
For AP-1, the assay was run as described above for NFκB except stable Jurkat T-cells were used that contained a the -73 collagenase promoter driving luciferase expression. In addition, the concentration of PMA used was 5 ng/mL.
In general terms: Reporter assays use an easily measured gene product as a stand-in for the process of interest.

Data set [1] has as its system DTH response to oxazolone. To be noted: Morris et al., Transplantation Proceedings 22(Suppl. 1):110-112, 1990; cited from earlier work.
For data set [2], the system named is alloantigen-induced PLN proliferation. To be noted: Morris et al., Transplantation Proceedings 22(Suppl. 1):110-112, 1990; cited from earlier work.
Data set [3] relates to DTH response to oxazolone. In words: Delayed type hypersensitivity study (oxazolone contact sensitivity model). Type of data set: in vivo, mice. To be noted: for Right-Left Ear (mean ± SEM): ear thickness difference 24 h after challenge, vehicle 0.30 ± 0.02.
Procedure: On day 0, oxazolone (100 μL of a 3% solution) was applied to the shaved abdomen of mice. On day 7, a challenge application of oxazolone was applied (10 μL) around the right ear. […] It was prepared immediately prior to use by suspending it in 0.25% methyl cellulose (Sigma) using a glass-teflon homogenizer. For each dose, 0.1 mL/10 g body weight of the suspension was administered. The compound was prepared at the highest concentration for that study and appropriate dilutions of the stock solution were made so that 0.1 mL/10 g body weight was administered. Twenty four hours later, the difference in right vs. left ear thickness was measured.
In data set [4] the test system is alloantigen-induced PLN proliferation. In words: Murine popliteal lymph node (PLN) assay, graft vs. host model. The data set is classed as in vivo, C3H mice (donor BALB/c mice). From the text:
The murine popliteal lymph node (PLN) assay is a graft vs. host model that predicts activity of compounds in blocking human transplant rejection. The delayed-type hypersensitivity response to oxazolone is a standard contact sensitivity model. Both of these models are used routinely to evaluate compounds that are used clinically.
Spleens were removed from donor BALB/c mice and splenocytes were isolated then irradiated (3,000 rads) to prevent donor cell proliferation. After washing and adjusting cell density, 2.5×10^6 cells were injected subcutaneously into the left hind footpad of C3H mice. On day 4, the mice were sacrificed and left popliteal lymph nodes (PLNs) were weighed.
For doses of 10, 20 and 30 mg/kg, appropriate dilutions of the stock solution were made so that 0.1 mL/10 g body weight was administered by intraperitoneal injection.

The next data set relates to β-actin. In words: β-actin control cell line (effects on transcription). To be noted: control for effects on transcription; FIG. 3. The data set is classed as cell-based. From the text: The results of the above assays for a representative compound of this invention, 2-chloro-4-trifluoromethyl-5-N-(3',5'-bistrifluoromethylphenyl)pyrimidine carboxamide, as percent inhibition versus control are presented in FIG. 3. This figure also indicates activity of β-actin which was employed in these assays as a control cell line indicating effects on transcription.

For “2-[N-(1-AMINOCITRACONAMIDE)]-4-TRIFLUOROMETHYL-5-[N-(3',5'-DICHLOROPHENYL)]-PYRIMIDINE-5-CARBOXAMIDE [Example 45]”, in the data set with NFκB / AP-1, the pIC50 is 5.70.
In the case of `O=P1(N(CCCl)CCCl)NCCCO1` (stereo not shown) [Cyclophosphamide, reference compound], the “activity in the contact sensitivity model (in words)” value in data set [1] is reported as “active”. Besides, in data set [2], the “activity in the PLN model (in words)” value was “active”. The “Right-Left Ear (mean ± SEM)” value in data set [3] (50 mg/kg (i.p.)) was determined as 0.08 ± 0.01. The “attenuation of the delayed-type response to oxazolone” value in data set [3] (50 mg/kg i.p.) came out at 73%.
With `O=C(Nc1cc(C(F)(F)F)cc(C(F)(F)F)c1)c1cnc(Cl)nc1C(F)(F)F` [Example 1, 2-CHLORO-4-TRIFLUOROMETHYL-5-N-[3',5'-BIS(TRIFLUOROMETHYL)PHENYL]PYRIMIDINECARBOXAMIDE], the figures for the “Right-Left Ear (mean ± SEM)” value in data set [3] (10 mg/kg (i.p.)) and in data set [3] (30 mg/kg (i.p.)) were 0.27 ± 0.01 and 0.13 ± 0.02, respectively. In data set [3] (30 mg/kg (i.p.)), the “animal deaths during study” value is recorded as “One animal died during study”. Moreover, the “attenuation of the delayed-type response to oxazolone” value in data set [3] (30 mg/kg i.p.) is reported as 56%. Further, the pIC50 in the data set on NFκB / AP-1 (Homo sapiens) is 7.52. Besides, the “inhibition of PLN proliferation” value in data set [4] (10 mg/kg, once daily intraperitoneal, day 0 through day 4) was determined as 52%. For the same compound, the “suppression of alloantigen-induced PLN proliferation (in words)” value in data set [4] (10, 20 and 30 mg/kg i.p.) is on record as “dose-dependent suppression of alloantigen-induced PLN proliferation”. In addition, in the data set with β-actin, the “activity of β-actin (control cell line)” value was “lack of β-actin activity”.
`O=C(Nc1ccc(C(F)(F)F)cc1)c1cnc(Cl)nc1C(F)(F)F` [Example 2, 2-CHLORO-4-TRlFLUOROMETHYL-5-N(4'-TRIFLUOROMETHYLPHENYL)PYRIMIDINE CARBOXAMIDE]: the pIC50 with NFκB / AP-1 (Homo sapiens) is 6.12.
For the compound `O=C(Nc1cc(Cl)c(Cl)c(Cl)c1)c1cnc(Cl)nc1C(F)(F)F` [Example 6, 2-CHLORO-4-TRIFLUOROMETHYL-5-N-(3',4',5'-TRICHLOROPHENYL)PYRIMIDINE CARBOXAMIDE], in the data set on NFκB / AP-1 (Homo sapiens), the pIC50 was 6.10.
Take `O=C(Nc1cc(Cl)cc(Cl)c1O)c1cnc(Cl)nc1C(F)(F)F` [Example 8, 2-CHLORO-4-TRIFLUOROMETHYL-5-N-(3',5'-DICHLORO-6'-HYDROXYPHENYL)PYRIMIDINE CARBOXAMIDE]: the pIC50 with NFκB / AP-1 (Homo sapiens) is 5.22.
`CC(=O)Nc1cc(NC(=O)c2cnc(Cl)nc2C(F)(F)F)ccc1F` [Example 10, 2-CHLORO-4-TRIFLUOROMETHYL-5-N-(3'-N-ACYL-4'-FLUORO-ANILINE)PYRIMIDINE CARBOXAMIDE]: the pIC50 in the data set on NFκB / AP-1 (Homo sapiens) was 6.00.
With `NC(=O)c1cc(NC(=O)c2cnc(Cl)nc2C(F)(F)F)cc(C(F)(F)F)c1` [Example 11, 2-CHLORO-4-TRIFLUOROMETHYL-5-N-(3'-TRIFLUOROMETHYL-5'-CARBOXAMIDEPHENYL) PYRIMIDINE CARBOXAMIDE], in the data set with NFκB / AP-1 (Homo sapiens), the pIC50 was 5.30.
Still for that read-out and setting: the figure for `CCOC(=O)c1cc(NC(=O)c2cnc(Cl)nc2C(F)(F)F)cc(C(F)(F)F)c1` [Example 12, 2-CHLORO-4-TRIFLUOROMETHYL-5-N-(3'-TRIFLUOROMETHYL-5'-ETHOXYCARBONYLPHENYL)PYRIMIDINE CARBOXAMIDE] is 6.40; for `CN(C(=O)c1cnc(Cl)nc1C(F)(F)F)c1cc(Cl)cc(Cl)c1` [Example 13, 2-CHLORO-4-TRIFLUOROMETHYL-5-N-(3',5'-DICHLOROPHENYL)-5-N-(METHYL)PYRIMIDINE CARBOXAMIDE] it is 5.30.
Regarding `Cc1nc(Cl)nc(Cl)c1C(=O)Nc1cc(C(F)(F)F)cc(C(F)(F)F)c1` [Example 15, 5-N-[3',5'-BIS(TRIFLUOROMETHYL)PHENYL]2,4-DICHLORO-6-METHYLPYRIMIDINE CARBOXAMIDE], the pIC50 with NFκB / AP-1 (Homo sapiens) is 6.10.
On the same count and under the same terms, as for `Cc1nc(Cl)ncc1C(=O)Nc1cc(C(F)(F)F)cc(C(F)(F)F)c1` [Example 39, 2-CHLORO-4-METHYL-5-N-[3',5'-BIS(TRIFLUOROMETHYL)PHENYL]PYRIMIDINE CARBOXAMIDE], the figure is 7.12.
For the compound `O=C(Nc1cc(C(F)(F)F)cc(C(F)(F)F)c1)c1cnc(Cl)nc1Cl` [Example 41, 2,4-DICHLORO-5-N-[3',5'-BIS(TRIFLUOROMETHYL)PHENYL]PYRIMIDINE-5-CARBOXAMIDE], in the data set with NFκB / AP-1 (Homo sapiens), the pIC50 was 6.22.
Turning to `N#Cc1ncc(C(=O)Nc2cc(C(F)(F)F)cc(C(F)(F)F)c2)c(C(F)(F)F)n1` [Example 42, 2-CYANO-4-TRIFLUOROMETHYL-5-N-[3',5'-BIS(TRIFLUOROMETHYL)PHENYL]PYRIMIDINE CARBOXAMIDE], in the data set on NFκB / AP-1 (Homo sapiens), the pIC50 is less than 5.00.
On the same count and under the same terms, as for `O=C(Nc1cc(C(F)(F)F)cc(C(F)(F)F)c1)c1cnc(Cl)nc1-c1ccccc1` [Example 43, 2-CHLORO-4-PHENYL-5-N-[3',5'-BIS(TRIFLUOROMETHYL)PHENYL]PYRIMIDINE CARBOXAMIDE], the figure is 6.30.
